The target of this assay is DP IV (Sus scrofa, UniProt P22411). Nature of the assay: Ki-determination, photometric DP IV assay with substrate GP-4-Nitroanilide. The following applies: competitor of GP-4-Nitroanilide, 3.5 nM DP IV, 30° C., pH 7.6 40 mM HEPES. Format: biochemical. As to the method:
In order to measure the inhibition constant Ki a photometric assay was used The test compounds were measured as competitors of the standard substrate GP-4-Nitroanilide. Three different substrate concentrations (0.4 mM to 0.05 mM) were combined with 8 different competitor concentrations (0.5 mM to 2 μM). The reaction was started by addition of 3.5 nM DP IV. Experiments were carried out under standard conditions: 30° C. in pH 7.6 40 mM HEPES (Sigma-Aldrich) buffer. Nitroaniline production was monitored using a HTS 7000+microplate reader (PerkinElmer, Überlingen, Germany). The Ki-values were calculated via non-linear regression using the enzyme kinetic program Grafit 4.016 (Erithacus Ltd, UK).

pKi: −log10 of the molar value.

DP IV, sequence (P22411 whole entry): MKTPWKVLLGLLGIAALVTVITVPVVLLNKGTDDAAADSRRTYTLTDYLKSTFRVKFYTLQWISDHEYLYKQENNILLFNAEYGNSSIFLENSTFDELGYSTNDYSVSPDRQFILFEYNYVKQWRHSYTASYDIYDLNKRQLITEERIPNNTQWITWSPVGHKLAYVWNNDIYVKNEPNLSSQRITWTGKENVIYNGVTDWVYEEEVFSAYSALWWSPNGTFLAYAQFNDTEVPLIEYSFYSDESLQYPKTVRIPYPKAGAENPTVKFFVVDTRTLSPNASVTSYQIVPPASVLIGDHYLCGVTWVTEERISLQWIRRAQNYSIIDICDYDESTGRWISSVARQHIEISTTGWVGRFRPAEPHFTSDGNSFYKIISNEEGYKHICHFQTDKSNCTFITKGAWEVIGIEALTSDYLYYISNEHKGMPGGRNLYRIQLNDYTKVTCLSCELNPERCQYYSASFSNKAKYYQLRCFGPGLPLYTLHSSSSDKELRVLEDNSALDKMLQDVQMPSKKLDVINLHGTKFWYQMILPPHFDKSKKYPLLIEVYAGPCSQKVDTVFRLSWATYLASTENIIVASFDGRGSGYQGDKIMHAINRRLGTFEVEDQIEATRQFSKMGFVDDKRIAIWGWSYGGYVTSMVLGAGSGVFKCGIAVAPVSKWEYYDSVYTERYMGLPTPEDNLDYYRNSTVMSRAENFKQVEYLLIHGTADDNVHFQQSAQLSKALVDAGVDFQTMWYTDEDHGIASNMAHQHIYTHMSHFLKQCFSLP

Consider `CCC(C)C(N)C(=O)C1CCCC1` (stereo not shown) [Example 1, 1-cyclopentyl-3-methyl-1-oxo-2-pentanaminium chloride], for which the pKi is 5.20.

For orientation: pKi means −log10 of the Ki, conventionally taken in molar units.

These data come from patent US20050014946A1, “Substituted amino ketone compounds” (priority 2001, published 2005).
